Results reported in article PMC9674596, “Origin of acetylcholine antagonism in ELIC, a bacterial pentameric ligand-gated ion channel” (Communications Biology, 2022).
Entries after “also recorded” stand apart in the source; their conditions may differ.

Experiments:
[1] = molecular target: T1, ELIC A75D/F133W (Dickeya chrysanthemi, UniProt P0C7B7, A75D/F133W/INS163G); assay: Two-electrode voltage clamp, A75D/F133W double mutant ELIC expressed in Xenopus laevis oocytes; type: cell-based, Erwinia chrysanthemi; conditions: for Activation by amine (whole-cell response): 25 mM amine; for Activation by amine (whole-cell response) / Effect of co-applied ligand on cysteamine-activated current: cysteamine at its EC50; for Effect of co-applied ligand on cysteamine-activated current: 25 mM ligand, 40 s pulse; for Potentiation of the cysteamine response on co-application: 50 mM co-applied in the middle of a cysteamine pulse at EC50 (6.9 mM); for Response when applied by themselves: 50 mM applied for 40 s without cysteamine
T1 construct: expressed in transfected cells; host or cells: Xenopus laevis oocytes injected with cRNA; DNA construct synthesised by Twist Bioscience
Method: (§1) Stage V-VI Xenopus laevis oocytes were isolated[72] and deflocculated enzymatically in ND96 buffer without Ca^2+ (96 mM NaCl, 2 mM KCl, 1 mM MgCl2, 2 mM pyruvate, 5 mM HEPES, pH 7.4), but supplemented with 1 mg/mL collagenase B and 1 mg/mL trypsin inhibitor, for 2 h at room temperature under constant stirring. The deflocculation buffer was then gradually removed by washing the oocytes in ND96 buffer (96 mM NaCl, 2 mM KCl, 1 mM MgCl2, 1 mM CaCl2, 2 mM pyruvate, 5 mM HEPES, pH 7.4) for several iterations. The oocytes were then allowed to stir for an additional hour at room temperature under constant stirring with the buffer being periodically replaced until clear. To obtain optimal receptor expression, individually selected and healthy oocytes were injected with 0.2 ng cRNA for wild-type ELIC and 5 ng cRNA for mutants. Subsequently, oocytes were incubated for one day at 16 °C in ND96^+ buffer (96 mM NaCl, 2 mM KCl, 1 mM MgCl2, 1 mM CaCl2, 2 mM pyruvate, and 5 mM HEPES at pH 7.6). After expression, injected oocytes were placed in a RC-1Z oocyte chamber (Harvard Apparatus; Hamden, CT) containing buffer (pH 7.4) composed of 150 mM NaCl, 0.5 mM BaCl2, 10 mM HEPES, and 1 mM dithiothreitol or 1 µM atropine if cysteamine, or ACh, was used in the experiment, respectively. The presence of the reducing agent, dithiothreitol, ensures that the sulfhydryl group of cysteamine remains reduced.
(§2) Once in the oocyte chamber, whole-cell currents were recorded using a two-electrode voltage-clamp apparatus (OC-725C oocyte clamp; Harvard Apparatus), with a buffer flow rate of 5–10 mL min^−1. Currents in response to various additions of cysteamine and/or ACh, were measured with the transmembrane voltage clamped at −60 mV. Dose response curves for each wild-type and mutant ELIC were acquired from at least five oocytes in two different batches.
(§3) For identifying the half maximal effective concentration (EC50) and apparent Hill coefficient (nH) of cysteamine, dose response curves were created by taking the magnitude of each cysteamine-activated peak current (I) and normalizing this value to the maximal peak current in the presence of excess agonist (Imax). The log (base 10) cysteamine concentration in molar was then plotted on the x-axis against the fractional response (I/Imax) on the y-axis. The data was fitted using nonlinear regression with a variable slope sigmoidal dose response (Eq. 1, below) in GraphPad Prism (v.8.0.0).1 y=1/1+10^nH^LogEC50−X
(§4) Individual EC50 and Hill coefficients were averaged for each oocyte to derive a mean ± standard deviation. For identifying a half maximal inhibitory concentration (IC50) and Hill coefficient of ACh, a concentration of cysteamine corresponding to its EC50 was used in the presence of increasing concentrations of ACh. Peak currents elicited from cysteamine with ACh (I) were normalized to the initial cysteamine peak current in the absence of ACh (Io). The log (base 10) ACh concentration was then plotted on the x-axis against the fractional response (I/Io) on the y-axis. Subsequent steps were the same as above for deriving a cysteamine EC50 and Hill coefficient. The individual IC50 and Hill coefficients were averaged for each oocyte to derive a mean ± one standard deviation. Lastly, to identify four normalized response values, cysteamine at the 10% maximal effective concentration (EC10), 20% maximal effective concentration (EC20), EC50 and 90% maximal effective concentration (EC90), was applied in the presence and absence of 25 mM ACh. The cysteamine-activated peak current with 25 mM ACh, was normalized to the cysteamine-activated peak current without ACh.

[2] = molecular target: T2, wild-type ELIC (Dickeya chrysanthemi, UniProt P0C7B7, INS163G); conditions: cited from earlier work
T2 construct: expressed in transfected cells; host or cells: Xenopus laevis oocytes injected with cRNA from ELIC-pTLN

[3] = test system: ELIC Y38W; assay: Two-electrode voltage clamp, Y38W mutant ELIC expressed in Xenopus laevis oocytes; type: cell-based, Erwinia chrysanthemi; conditions: Y38W
Method: as §1, §2, §3, §4

[4] = molecular target: ELIC Y38W (Dickeya chrysanthemi, UniProt P0C7B7, Y38W); assay: as above; type: cell-based, Erwinia chrysanthemi; conditions: Y38W
Method: as §1, §2, §3, §4

[5] = molecular target: T3, ELIC L240A (L9′A) (Dickeya chrysanthemi, UniProt P0C7B7, L239A); assay: Two-electrode voltage clamp, L240A (L9′A) mutant ELIC expressed in Xenopus laevis oocytes; type: cell-based, Erwinia chrysanthemi; conditions: L9′A; 30 s applications of ACh 0.5 to 50 mM, then 5 mM cysteamine
T3 construct: expressed in transfected cells; host or cells: Xenopus laevis oocytes injected with cRNA from ELIC-pTLN
Method: as §1, §2, §3
(§5) Individual EC50 and Hill coefficients were averaged for each oocyte to derive a mean ± standard deviation. For identifying a half maximal inhibitory concentration (IC50) and Hill coefficient of ACh, a concentration of cysteamine corresponding to its EC50 was used in the presence of increasing concentrations of ACh. […]

[6] = molecular target: T4, ELIC A75D (Dickeya chrysanthemi, UniProt P0C7B7, A75D/INS163G); assay: Two-electrode voltage clamp, A75D mutant ELIC expressed in Xenopus laevis oocytes; type: cell-based, Erwinia chrysanthemi; conditions: A75D
T4 construct: expressed in transfected cells; host or cells: Xenopus laevis oocytes injected with cRNA from ELIC-pTLN

[7] = molecular target: T5, ELIC I79Y (Dickeya chrysanthemi, UniProt P0C7B7, I79Y/INS163G); assay: Two-electrode voltage clamp, I79Y mutant ELIC expressed in Xenopus laevis oocytes; type: cell-based, Erwinia chrysanthemi; conditions: ACh 0.5 mM to 50 mM, followed by 5 mM cysteamine
T5 construct: expressed in transfected cells; host or cells: Xenopus laevis oocytes injected with cRNA from ELIC-pTLN
Method: as §1, §2, §3
as §4, with “The cysteamine-activated peak current with 25 mM ACh, was normalized to the cysteamine-activated peak current without ACh.” left out

[8] = molecular target: T2, wild-type ELIC; assay: Two-electrode voltage clamp, whole-cell currents of wild-type ELIC expressed in Xenopus laevis oocytes; type: cell-based, Erwinia chrysanthemi; conditions: WT ELIC, ACh inhibition of GABA-activated current
[9] = molecular target: T2, wild-type ELIC; assay: as above; type: cell-based, Erwinia chrysanthemi; conditions: for Activation by amine (whole-cell response): 25 mM amine
Method: as §1, §2, §3
as §4, with “[…] […]” for “For identifying a half maximal inhibitory concentration (IC50) and Hill coefficient of ACh, a concentration of cysteamine corresponding to its EC50 was used in the presence of increasing concentrations of ACh. Peak currents elicited from cysteamine with ACh (I) were normalized to the initial cysteamine peak current in the absence of ACh (Io).”

[10] = molecular target: T6, ELIC L240A (L9′A) + A75D/F133W (Dickeya chrysanthemi, UniProt P0C7B7, A75D/F133W/L239A); assay: Two-electrode voltage clamp, L9′A + A75D/F133W triple mutant ELIC expressed in Xenopus laevis oocytes; type: cell-based, Erwinia chrysanthemi; conditions: L9′A + A75D/F133W; 30 s applications of ACh 0.5 to 50 mM, then 5 mM cysteamine
T6 construct: expressed in transfected cells; host or cells: Xenopus laevis oocytes injected with cRNA
Method: as §1, §2, §3, §5

[11] = molecular target: ELIC F133W (Dickeya chrysanthemi, UniProt P0C7B7, F133W); assay: cell-based; type: cell-based, Erwinia chrysanthemi; conditions: F133W
Method: as §1, §2, §3, §4

[12] = ACh inhibition, cysteamine at its EC50
[13] = cysteamine at EC10, EC20, EC50, EC90
[14] = ACh 0.5 mM to 50 mM, followed by 5 mM cysteamine
[15] = WT, 25 mM ligand, 40 s pulse, cysteamine at its EC50

With CC(=O)OCC[N+](C)(C)C [ACh, acetylcholine] the “Activation by amine (whole-cell response)” value (shortened to “Activation by amine”) [1] was “fail to activate”, the “Effect of co-applied ligand on cysteamine-activated current” value (shortened to “Effect of co-applied ligand”) [1] was “same small degree of potentiation” and the “Potentiation of the cysteamine response on co-application” value (“Potentiation of the cysteamine response” for short) [1] was “potentiation”. The “Effect of high ACh concentrations on cysteamine peak current” value ([1]; ACh 50–100 mM, cysteamine at EC50) was “appeared to potentiate”, the “ACh inhibition of the cysteamine response” value ([1]; cysteamine fixed at EC50 (6.9 mM), ACh up to 100 mM) was “failed to inhibit; also recorded: no inhibition by ACh is observed” and the “Action on ELIC” value [2] was “competitive antagonist”. The “Decrease in ACh IC50 relative to wild-type” value [3] was 3 fold, the “Inhibition Hill coefficient” value [4, 12] was “–1.4 ± 0.1” and the “Effect of 25 mM ACh on cysteamine-activated currents” value (“Effect of 25 mM ACh” below) [4, 13] was “nearly fully inhibited”. For the same compound, the “Peak current on application of ligand alone” value (shortened to “Peak current on application”) [4, 14] was “None of the single mutants, nor wild-type ELIC, produced any peak current”, the “Current on application of ligand alone” value [5] was “Neither mutant produced observable current; also recorded: No ACh-induced currents were observed” and the “Increase in ACh IC50 relative to wild-type” value [6] was 7 fold. The “Inhibition Hill coefficient” value [6, 12] was “–0.7 ± 0.1”, the “Effect of 25 mM ACh” value [6, 13] was “increasing the concentration of cysteamine reduced the degree of inhibition” and the “Peak current on application” value [6, 14] was “None of the single mutants, nor wild-type ELIC, produced any peak current”. For the same compound, the “Peak current on application” value [7] was “None of the single mutants, nor wild-type ELIC, produced any peak current”, the “Inhibition Hill coefficient” value [8] was “–1.0 ± 0.3” and the “Inhibition Hill coefficient” value ([9]; WT ELIC, ACh inhibition of cysteamine-activated current) was “–1.1 ± 0.1”. For the same compound, the “Activation by amine” value ([9]; WT) was “fail to activate”, the “Effect of co-applied ligand” value [9, 15] was “completely inhibited” and the “Effect of 25 mM ACh” value ([9]; WT, cysteamine at EC10, EC20, EC50, EC90) was “nearly fully inhibited”. For the same compound, the “Peak current on application” value ([9]; WT, ACh 0.5 mM to 50 mM, followed by 5 mM cysteamine) was “None of the single mutants, nor wild-type ELIC, produced any peak current”, the “Current on application of ligand alone” value [10] was “Neither mutant produced observable current; also recorded: No ACh-induced currents were observed” and the “Inhibition Hill coefficient” value [11, 12] was “–1.1 ± 0.1”. For the same compound, the “Effect of 25 mM ACh” value [11, 13] was “increasing the concentration of cysteamine reduced the degree of inhibition” and the “Peak current on application” value [11, 14] was “None of the single mutants, nor wild-type ELIC, produced any peak current”.

In the case of CC(=O)OCCN(C)C [DMAEA, 2-dimethylaminoethyl acetate], the “Effectiveness of activation compared with wild-type ELIC” value ([1]; 25 mM) is given as “much less effective than observed with wild-type ELIC”, the “Activation by amine” value [1] is given as “activate” and the “Action on ELIC” value [2] is given as “able to activate ELIC”. The “Activation by amine” value ([9]; WT) was “activate”.

For NCCCC(=O)O [GABA, γ-aminobutyric acid], the “Activation by amine” value [1] is listed as “fails to elicit a response”, the “Effect of co-applied ligand” value [1] is listed as “same small degree of potentiation” and the “Action on ELIC” value [2] is listed as “agonist”. For the same compound, the “Activation Hill coefficient” value ([9]; WT ELIC, agonist activation) was 4.0 ± 0.7, the “Increase of cysteamine-activated current by co-applied ligand” value [9, 15] was “roughly 2 fold” and the “Macroscopic activation/deactivation kinetics of agonist-activated currents” value ([9]; WT, compared with cysteamine, agonists at their EC50) was “slower macroscopic activation/deactivation kinetics”.

With [Cl-].[Na+] [NaCl, sodium chloride] the “Response when applied by themselves” value [1] was “negligible response” and the “Potentiation of the cysteamine response” value [1] was “small, but reproducible, degree of potentiation”.

For CCCN [propylamine], the “Action on ELIC” value [2] is given as “agonists”.

For OC[C@H]1O[C@@](CO)(O[C@H]2O[C@H](CO)[C@@H](O)[C@H](O)[C@H]2O)[C@@H](O)[C@@H]1O [sucrose], the “Response when applied by themselves” value [1] was “negligible response” and the “Potentiation of the cysteamine response” value [1] was “did not potentiate”.

In the case of C[N+](C)(C)C [tetramethylammonium, Tetramethylammonium], the “Activation by amine” value [1] is reported as “fail to activate” and the “Activation by amine” value ([9]; WT) is reported as “fail to activate”.

For CN(C)C [trimethylamine, Trimethylamine], the “Activation by amine” value [1] was “activate” and the “Activation by amine” value ([9]; WT) was “activate”.
